Test results taken from the NIST ThermoML archive (doi:10.1016/j.jct.2009.04.009).
± gives the expanded uncertainty stated by the source.

Conditions: Liquid

CC(C)CO [2-methyl-1-propanol]
Recirculating still
Conditions	vapor or sublimation pressure [kPa]
336.9 K	15 ± 0.2
351.2 K	30 ± 0.3
357.7 K	40 ± 0.4
362.9 K	50 ± 0.5
367.4 K	60 ± 0.5
371.3 K	70 ± 0.6
374.7 K	80 ± 0.7
377.8 K	90 ± 0.8
380.7 K	100 ± 0.8
383.3 K	110 ± 0.9
385.8 K	120 ± 1
388 K	130 ± 1.1
390.2 K	140 ± 1.1
392.2 K	150 ± 1.2

CC(C)CCO [3-methylbutan-1-ol]
Recirculating Still
Conditions	vapor or sublimation pressure [kPa]
357.5 K	15 ± 0.2
367.2 K	23.5 ± 0.2
374.4 K	32 ± 0.3
380.1 K	40.5 ± 0.4
384.8 K	49 ± 0.4
389.1 K	57.5 ± 0.5
392.8 K	66 ± 0.6
402 K	91.5 ± 0.7
407 K	108.5 ± 0.8
409.3 K	117 ± 0.9
411.4 K	125.5 ± 1
413.5 K	134 ± 1
415.4 K	142.5 ± 1.1
417.3 K	151 ± 1.1
419.2 K	159.5 ± 1.2
420.9 K	168 ± 1.3
422.4 K	176.5 ± 1.3
